The results in this text go back to patent publication US7951811B2, “Pyrrolo[2,3-D]pyrimidine derivatives substituted with a cyclic amino group” (Taisho Pharmaceutical Co., Ltd., priority 2004, dated 2011).

The target in this experiment is T1, δ receptor (delta opioid receptor) (Rattus norvegicus, UniProt P33533).
T1 construct: Rat Brain Membranes were Used as a Receptor Preparation; from tissue; host or cells: rat brain membranes
T1 sequence (P33533 whole entry): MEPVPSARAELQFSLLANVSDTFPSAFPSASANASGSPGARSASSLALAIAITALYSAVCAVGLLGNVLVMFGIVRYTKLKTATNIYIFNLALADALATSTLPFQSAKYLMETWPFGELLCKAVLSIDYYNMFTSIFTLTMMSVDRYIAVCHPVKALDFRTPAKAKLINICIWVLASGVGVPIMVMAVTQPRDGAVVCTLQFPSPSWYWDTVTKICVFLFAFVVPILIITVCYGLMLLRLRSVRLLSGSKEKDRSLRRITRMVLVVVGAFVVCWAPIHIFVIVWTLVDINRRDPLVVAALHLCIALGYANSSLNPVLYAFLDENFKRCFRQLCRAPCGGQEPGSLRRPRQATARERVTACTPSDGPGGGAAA
As to the kind of experiment: δ receptor binding test (3H-DPDPE displacement). As to conditions: rat brain membranes, 3H-DPDPE 1.5 nM, 25° C., 70 minutes; read-out: IC50 (concentration at which binding of 3H-DPDPE is inhibited by 50%). As for the experimental part:
Rat Brain Membranes were Used as a Receptor Preparation.
^3H-DPDPE ([D-Pen^2,D-Pen^5]-Enkephalin) was used as ^3H-labeled ligand.
Binding reaction using the ^3H-labeled ligand was carried out by the following method.
Preparation of Receptor Membranes:
Rat brain was homogenized in 50 mM Tris-HCl buffer (pH 7.4) containing 10 mM MgCl2 and 1 mM EDTA, and centrifuged at 48,000×g for 20 min, and the precipitate was washed once with Tris-HCl buffer. The washed precipitate was suspended in 50 mM Tris-HCl buffer (pH 7.4) containing 10 mM MgCl2 and 1 mM EDTA, to obtain a membrane preparation.
Delta Opioid Receptor Binding Test:
The membrane preparation (1 mg protein/ml), H-DPDPE (1.5 nM) and a test drug were reacted at 25° C. for 70 minutes. After completion of the reaction, the reaction mixture was filtered by suction through a glass filter (GF/B) treated with 0.3% polyethylene imine, and the glass filter was washed three times with 50 mM Tris-HCl buffer (pH 7.4) containing 10 mM MgCl2 and 1 mM EDTA. After the washing, scintillation cocktail was added to the filters, and the radioactivity of the filter was measured in a liquid scintillation counter.
The amount of ^3H-DPDPE bound when the reaction was carried out in the presence of 10 μM naltrindole was taken as the degree of nonspecific binding of ^3H-DPDPE, and the difference between the total degree of ^3H-DPDPE binding and the degree of nonspecific ^3H-DPDPE binding was taken as the degree of specific ^3H-DPDPE binding. An inhibition curve was obtained by reacting a definite concentration (1.5 nM) of ^3H-DPDPE with various concentrations of each test drug under the conditions described above. A concentration of the test drug at which binding of ^3H-DPDPE is inhibited by 50% (IC50) was determined from the inhibition curve.
As for `Cc1nc(N2CCC(CC(=O)O)CC2)c2c(C)c(C)n(-c3c(C)cc(Br)cc3C)c2n1` [Compound 1-001, {1-[7-(4-bromo-2,6-dimethyl-phenyl)-2,5,6-trimethyl-7H-pyrrolo[2,3-d]pyrimidin-4-yl]-piperidin-4-yl}-acetic acid], the IC50 was ≤ 500 nM.

For `Cc1nc(N2CCC(CC(=O)O)CC2)c2c(C)cn(-c3c(C)cc(Br)cc3C)c2n1` [Compound 1-002, {1-[7-(4-bromo-2,6-dimethyl-phenyl)-2,5-dimethyl-7H-pyrrolo[2,3-d]pyrimidin-4-yl]-piperidin-4-yl}-acetic acid], the IC50 is ≤ 500 nM. As to `Cc1cc(N2CCC(CC(=O)O)CC2)c2c(C)c(C)n(-c3c(C)cc(Br)cc3C)c2n1` [Compound 1-003, {1-[1-(4-bromo-2,6-dimethyl-phenyl)-2,3,6-trimethyl-1H-pyrrolo[2,3-b]pyridin-4-yl]-piperidin-4-yl}-acetic acid], the IC50 was ≤ 500 nM. The figure for `Cc1cc(N2CCC(CC(=O)O)CC2)c2c(C)cn(-c3c(C)cc(Br)cc3C)c2n1` [Compound 1-004, {1-[1-(4-bromo-2,6-dimethyl-phenyl)-3,6-dimethyl-1H-pyrrolo[2,3-b]pyridin-4-yl]-piperidin-4-yl}-acetic acid] is ≤ 500 nM; for `Cc1cc(N2CCC(CC(=O)O)CC2)c2c(C)c(C)n(-c3c(C)cc(Cl)cc3C)c2n1` [Compound 1-005, {1-[1-(4-chloro-2,6-dimethyl-phenyl)-2,3,6-trimethyl-1H-pyrrolo[2,3-b]pyridin-4-yl]-piperidin-4-yl}-acetic acid] it is ≤ 500 nM; for `Cc1cc(N2CCC(CC(=O)O)CC2)c2c(C)cn(-c3c(C)cc(Cl)cc3C)c2n1` [Compound 1-006, {1-[1-(4-chloro-2,6-dimethyl-phenyl)-3,6-dimethyl-1H-pyrrolo[2,3-b]pyridin-4-yl]-piperidin-4-yl}-acetic acid] it is ≤ 500 nM. The result for `Cc1cc(N2CCC(CC(=O)O)CC2)c2c(C)cn(-c3c(Cl)cc(Cl)cc3Cl)c2n1` [Compound 1-011, {1-[3,6-dimethyl-1-(2,4,6-trichloro-phenyl)-1H-pyrrolo[2,3-b]pyridin-4-yl]-piperidin-4-yl}-acetic acid] reads ≤ 500 nM; that for `Cc1cc(N2CCC(CC(=O)O)CC2)c2c(C)cn(-c3c(Br)cc(Cl)cc3Br)c2n1` [Compound 1-012, {1-[1-(2,6-dibromo-4-chloro-phenyl)-3,6-dimethyl-1H-pyrrolo[2,3-b]pyridin-4-yl]-piperidin-4-yl}-acetic acid], ≤ 500 nM; that for `Cc1cc(N2CCC(CC(=O)O)CC2)c2c(C)cn(-c3ccc(Br)cc3Br)c2n1` [Compound 1-016, {1-[1-(2,4-dibromo-phenyl)-3,6-dimethyl-1H-pyrrolo[2,3-b]pyridin-4-yl]-piperidin-4-yl}-acetic acid], ≤ 500 nM. The result for `Cc1nc(N2CCC(CCC(=O)O)CC2)c2c(C)cn(-c3c(C)cc(Br)cc3C)c2n1` [Compound 1-018, 3-{1-[7-(4-bromo-2,6-dimethyl-phenyl)-2,5-dimethyl-7H-pyrrolo[2,3-d]pyrimidin-4-yl]-piperidin-4-yl}-propionic acid] reads ≤ 500 nM. On to `Cc1cc(N2CCC(CCC(=O)O)CC2)c2c(C)c(C)n(-c3c(C)cc(Br)cc3C)c2n1` [Compound 1-019, 3-{1-[1-(4-bromo-2,6-dimethyl-phenyl)-2,3,6-trimethyl-1H-pyrrolo[2,3-b]pyridin-4-yl]-piperidin-4-yl}-propionic acid], for which the IC50 is ≤ 500 nM. Consider `Cc1cc(N2CCC(CCC(=O)O)CC2)c2c(C)cn(-c3c(C)cc(Br)cc3C)c2n1` [Compound 1-020, 3-{1-[1-(4-bromo-2,6-dimethyl-phenyl)-3,6-dimethyl-1H-pyrrolo[2,3-b]pyridin-4-yl]-piperidin-4-yl}-propionic acid], for which the IC50 is ≤ 500 nM. The result for `Cc1cc(N2CCC(CCC(=O)O)CC2)c2c(C)c(C)n(-c3c(C)cc(Cl)cc3C)c2n1` [Compound 1-021, 3-{1-[1-(4-chloro-2,6-dimethyl-phenyl)-2,3,6-trimethyl-1H-pyrrolo[2,3-b]pyridin-4-yl]-piperidin-4-yl}-propionic acid] reads ≤ 500 nM; that for `Cc1cc(N2CCC(CCC(=O)O)CC2)c2c(C)cn(-c3c(C)cc(Cl)cc3C)c2n1` [Compound 1-022, 3-{1-[1-(4-chloro-2,6-dimethyl-phenyl)-3,6-dimethyl-1H-pyrrolo[2,3-b]pyridin-4-yl]-piperidin-4-yl}-propionic acid], ≤ 500 nM; that for `Cc1cc(N2CCC(CCC(=O)O)CC2)c2c(C)cn(-c3c(Cl)cc(Br)cc3Cl)c2n1` [Compound 1-025, 3-{1-[1-(4-bromo-2,6-dichloro-phenyl)-3,6-dimethyl-1H-pyrrolo[2,3-b]pyridin-4-yl]-piperidin-4-yl}-propionic acid], ≤ 500 nM. The result for `Cc1cc(N2CCC(CCC(=O)O)CC2)c2c(C)cn(-c3c(Cl)cc(Cl)cc3Cl)c2n1` [Compound 1-026, 3-{1-[3,6-dimethyl-1-(2,4,6-trichloro-phenyl)-1H-pyrrolo[2,3-b]pyridin-4-yl]piperidin-4-yl}-propionic acid] reads ≤ 500 nM; that for `Cc1cc(N2CCC(CCC(=O)O)CC2)c2c(C)cn(-c3c(Br)cc(Cl)cc3Br)c2n1` [Compound 1-027, 3-{1-[1-(2,6-dibromo-4-chloro-phenyl)-3,6-dimethyl-1H-pyrrolo[2,3-b]pyridin-4-yl]-piperidin-4-yl}-propionic acid], ≤ 500 nM. The result for `Cc1cc(N2CCC(CCCC(=O)O)CC2)c2c(C)c(C)n(-c3c(C)cc(Br)cc3C)c2n1` [Compound 1-032, 4-{1-[1-(4-bromo-2,6-dimethyl-phenyl)-2,3,6-trimethyl-1H-pyrrolo[2,3-b]pyridin-4-yl]-piperidin-4-yl}-butyric acid] reads ≤ 500 nM. With `Cc1cc(N2CCC(CP(=O)(O)O)CC2)c2c(C)cn(-c3c(C)cc(Br)cc3C)c2n1` [Compound 1-045, {1-[1-(4-bromo-2,6-dimethyl-phenyl)-3,6-dimethyl-1H-pyrrolo[2,3-b]pyridin-4-yl]-piperidin-4-ylmethyl}-phosphonic acid], the IC50 was ≤ 500 nM.

`Cc1cc(N2CCC(CS(=O)(=O)O)CC2)c2c(C)cn(-c3c(C)cc(Br)cc3C)c2n1` [Compound 1-047, {1-[1-(4-bromo-2,6-dimethyl-phenyl)-3,6-dimethyl-1H-pyrrolo[2,3-b]pyridin-4-yl]-piperidin-4-yl}-methanesulfonic acid]: the IC50 was ≤ 500 nM. On to `Cc1cc(N2CCC(CCS(=O)(=O)O)CC2)c2c(C)cn(-c3c(C)cc(Br)cc3C)c2n1` [Compound 1-048, 2-{1-[1-(4-bromo-2,6-dimethyl-phenyl)-3,6-dimethyl-1H-pyrrolo[2,3-b]pyridin-4-yl]-piperidin-4-yl}-ethanesulfonic acid], for which the IC50 was ≤ 500 nM.
